# pEC50: −log10 of the molar value.
# Target: T1, LXRalpha and/or beta (human LXR ligand binding domain)
# T1 construct: fused on or other part: His-tag (6xHis) on the LXR-LBD
# Assay: Co-activator recruitment assay (time-resolved fluorescence, SRC-1 peptide)
# Type: biochemical
# Details: LXR subtype (alpha or beta) not stated for these values; 22-R Hydroxycholesterol at 50 μM as 100% control; read-out: EC50 in coactivator recruitment assays
# From the text: The Ligand Binding Domain (LBD) of human LXRalpha (amino acid 205-447) and LXRbeta (amino acid 216-461) was produced by recombinant techniques in E coli. A fragment of the human Steroid Receptor Co-Activator-1 (SRC-1) was produced as a synthetic peptide. An anti-6His-antibody coupled with Europium (Eu^3+) was used to recognize the His-tag on the LXR-LBD and Allophycocyanin (APC) coupled to streptavidin was used to recognize the biotinylated SRC-1. Agonist binding to LXRalpha or LXRbeta enhances the affinity of LXR towards SRC-1 and thereby brings Eu^3+ and APC in close proximity. Eu^3+ is excited at 337 nm and emitts light at 620 nm. This emission, when in close proximity, excites APC to emit light at 665 nm.
# Dilution plates with compounds in DMSO were further diluted in buffer {20 mM [Tris(hydroxymethyl)aminomethane] pH 7.5, 0.125% CHAPS {3-[(3-Cholamidopropyl)dimethylammonio]-1-propanesulfonate}, 2 mM DTT (Dithiothreitol) and 0.05% BSA (Bovine Serum Albumin)} in order to reduce DMSO concentration, 0.5 μl to 13.5 μl. To this, 6 μl assay mix was added and the plates (384-well V-groove plates) were incubated at room temperature for 60 to 80 min. […] Time-resolved fluorescence readings were done in a Wallac Victor reader at 665 nm followed by reading at 615 nm. […]
row,pEC50,SMILES
1,6.82,"COc1ccc(NC2=C(c3ccccc3)C(=O)N(Cc3ccc(N(C)C)cc3)C2=O)cc1 [Example 13, 1-[4-(Dimethylamino)benzyl]-3-[(4-methoxyphenyl)amino]-4-phenyl-1H-pyrrole-2,5-dione]"
2,6.96,"COc1ccc(NC2=C(c3ccccc3)C(=O)N(Cc3cc(C)on3)C2=O)cc1 [Example 22, 3-[(4-Methoxyphenyl)amino]-1-[(5-methylisoxazol-3-yl)methyl]-4-phenyl-1H-pyrrole-2,5-dione]"
